Among the data in the kinase profiling compilation of Christmann-Franck et al. (2016) are IC50 values, retold here.

Experiment [1] deals with PIK3C2B (human) (UniProt O00750).
For experiment [2], the target named is TAOK3 (human) (UniProt Q9H2K8).
Experiment [3] has as its target TESK1 (human) (UniProt Q15569).
For experiment [4], the target named is MAPK8 (human) (UniProt P45983).
The target in experiment [5] is MAP2K5 (human) (UniProt Q13163).
The target of experiment [6] is CSK (human) (UniProt P41240).
For experiment [7], the target named is STK16 (human) (UniProt O75716).
In experiment [8] the target is PRKCD (human) (UniProt Q05655).
Experiment [9] deals with ADCK3 (human) (UniProt Q8NI60).
Sequence of ADCK3 (human) (Q8NI60 whole entry, looked up): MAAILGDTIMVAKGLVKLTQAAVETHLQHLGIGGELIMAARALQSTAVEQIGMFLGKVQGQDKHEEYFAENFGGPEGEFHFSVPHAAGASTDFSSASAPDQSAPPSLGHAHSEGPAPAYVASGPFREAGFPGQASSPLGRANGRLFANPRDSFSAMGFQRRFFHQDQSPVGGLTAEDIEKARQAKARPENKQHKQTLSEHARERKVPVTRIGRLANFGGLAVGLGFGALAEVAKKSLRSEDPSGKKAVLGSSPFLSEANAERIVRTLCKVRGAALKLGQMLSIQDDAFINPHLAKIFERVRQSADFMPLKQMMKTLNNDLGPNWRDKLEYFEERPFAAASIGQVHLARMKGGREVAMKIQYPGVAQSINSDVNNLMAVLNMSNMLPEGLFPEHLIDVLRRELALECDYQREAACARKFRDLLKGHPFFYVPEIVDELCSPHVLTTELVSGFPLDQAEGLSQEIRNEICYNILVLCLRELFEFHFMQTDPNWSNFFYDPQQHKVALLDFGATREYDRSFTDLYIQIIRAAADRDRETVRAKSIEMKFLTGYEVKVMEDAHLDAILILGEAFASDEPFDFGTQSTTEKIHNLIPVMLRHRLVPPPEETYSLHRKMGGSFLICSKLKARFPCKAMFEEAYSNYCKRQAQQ

Sequence of PRKCD (human) (Q05655 whole entry, looked up): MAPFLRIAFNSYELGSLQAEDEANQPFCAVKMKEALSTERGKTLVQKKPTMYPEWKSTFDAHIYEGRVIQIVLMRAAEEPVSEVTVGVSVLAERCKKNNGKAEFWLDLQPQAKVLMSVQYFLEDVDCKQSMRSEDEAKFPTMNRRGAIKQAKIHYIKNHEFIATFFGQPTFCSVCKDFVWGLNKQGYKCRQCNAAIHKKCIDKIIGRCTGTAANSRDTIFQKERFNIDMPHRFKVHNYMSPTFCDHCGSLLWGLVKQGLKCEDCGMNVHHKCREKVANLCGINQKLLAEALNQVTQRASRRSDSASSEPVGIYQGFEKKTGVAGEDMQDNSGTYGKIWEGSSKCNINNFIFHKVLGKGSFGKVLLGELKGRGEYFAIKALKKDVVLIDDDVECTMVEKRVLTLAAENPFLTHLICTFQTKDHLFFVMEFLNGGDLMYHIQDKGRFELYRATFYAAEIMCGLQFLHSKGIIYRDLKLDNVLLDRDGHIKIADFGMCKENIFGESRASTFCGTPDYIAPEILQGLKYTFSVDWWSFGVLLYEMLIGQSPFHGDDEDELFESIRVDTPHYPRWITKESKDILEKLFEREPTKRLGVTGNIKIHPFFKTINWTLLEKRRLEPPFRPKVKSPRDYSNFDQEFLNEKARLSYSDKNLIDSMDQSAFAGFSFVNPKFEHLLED
Sequence of TAOK3 (human) (Q9H2K8 whole entry, looked up): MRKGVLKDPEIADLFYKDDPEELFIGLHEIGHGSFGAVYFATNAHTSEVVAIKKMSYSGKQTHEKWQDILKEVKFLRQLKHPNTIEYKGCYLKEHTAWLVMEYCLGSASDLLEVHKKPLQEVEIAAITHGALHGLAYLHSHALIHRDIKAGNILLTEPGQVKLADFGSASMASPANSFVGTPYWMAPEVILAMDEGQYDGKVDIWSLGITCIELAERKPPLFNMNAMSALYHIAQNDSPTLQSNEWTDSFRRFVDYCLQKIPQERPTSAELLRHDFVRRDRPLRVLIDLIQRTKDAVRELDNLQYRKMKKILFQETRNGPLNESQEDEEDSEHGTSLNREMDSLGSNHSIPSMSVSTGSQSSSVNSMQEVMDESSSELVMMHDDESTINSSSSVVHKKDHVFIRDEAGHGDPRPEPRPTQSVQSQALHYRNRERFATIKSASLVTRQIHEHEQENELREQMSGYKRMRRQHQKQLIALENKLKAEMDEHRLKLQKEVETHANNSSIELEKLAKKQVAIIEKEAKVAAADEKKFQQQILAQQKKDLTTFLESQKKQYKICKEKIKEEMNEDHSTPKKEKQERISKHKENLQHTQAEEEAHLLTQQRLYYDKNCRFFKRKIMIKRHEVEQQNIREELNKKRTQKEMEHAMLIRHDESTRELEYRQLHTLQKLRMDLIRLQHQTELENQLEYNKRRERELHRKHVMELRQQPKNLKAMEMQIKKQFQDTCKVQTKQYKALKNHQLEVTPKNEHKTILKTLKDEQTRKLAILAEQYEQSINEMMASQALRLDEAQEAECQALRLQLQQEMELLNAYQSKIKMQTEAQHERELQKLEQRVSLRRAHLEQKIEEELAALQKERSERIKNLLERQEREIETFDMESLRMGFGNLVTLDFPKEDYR
Sequence of MAP2K5 (human) (Q13163 whole entry, looked up): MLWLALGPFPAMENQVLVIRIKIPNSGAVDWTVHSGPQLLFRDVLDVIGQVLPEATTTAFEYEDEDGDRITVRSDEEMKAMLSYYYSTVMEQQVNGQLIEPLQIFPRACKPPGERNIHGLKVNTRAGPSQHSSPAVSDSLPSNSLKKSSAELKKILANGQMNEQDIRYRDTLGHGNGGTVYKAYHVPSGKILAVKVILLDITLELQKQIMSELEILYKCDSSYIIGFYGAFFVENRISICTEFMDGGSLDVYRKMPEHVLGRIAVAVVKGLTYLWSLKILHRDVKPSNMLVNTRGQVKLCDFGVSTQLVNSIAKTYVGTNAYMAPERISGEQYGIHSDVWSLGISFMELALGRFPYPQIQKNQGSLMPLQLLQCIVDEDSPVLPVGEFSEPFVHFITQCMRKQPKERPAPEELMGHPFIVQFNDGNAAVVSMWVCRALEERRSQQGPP
Sequence of STK16 (human) (O75716 whole entry, looked up): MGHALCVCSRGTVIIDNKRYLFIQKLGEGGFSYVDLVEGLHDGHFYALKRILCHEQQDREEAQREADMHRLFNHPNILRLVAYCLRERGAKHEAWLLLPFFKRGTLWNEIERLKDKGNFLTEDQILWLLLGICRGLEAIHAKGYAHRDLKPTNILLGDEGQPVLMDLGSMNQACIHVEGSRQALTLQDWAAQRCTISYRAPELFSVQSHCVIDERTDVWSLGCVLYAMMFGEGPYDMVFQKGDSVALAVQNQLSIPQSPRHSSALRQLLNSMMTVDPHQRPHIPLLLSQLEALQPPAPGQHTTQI
Sequence of MAPK8 (human) (P45983 whole entry, looked up): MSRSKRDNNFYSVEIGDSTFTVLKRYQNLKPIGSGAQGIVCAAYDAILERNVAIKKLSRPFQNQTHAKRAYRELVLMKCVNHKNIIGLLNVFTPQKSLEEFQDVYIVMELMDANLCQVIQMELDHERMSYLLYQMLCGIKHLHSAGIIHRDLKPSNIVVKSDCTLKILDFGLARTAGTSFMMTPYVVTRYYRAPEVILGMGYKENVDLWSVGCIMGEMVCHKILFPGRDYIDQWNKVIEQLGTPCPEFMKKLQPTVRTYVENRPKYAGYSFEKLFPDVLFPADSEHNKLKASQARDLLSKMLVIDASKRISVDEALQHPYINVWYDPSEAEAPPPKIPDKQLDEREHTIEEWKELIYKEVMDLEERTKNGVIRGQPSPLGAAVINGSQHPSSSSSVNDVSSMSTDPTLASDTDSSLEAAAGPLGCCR
Sequence of CSK (human) (P41240 whole entry, looked up): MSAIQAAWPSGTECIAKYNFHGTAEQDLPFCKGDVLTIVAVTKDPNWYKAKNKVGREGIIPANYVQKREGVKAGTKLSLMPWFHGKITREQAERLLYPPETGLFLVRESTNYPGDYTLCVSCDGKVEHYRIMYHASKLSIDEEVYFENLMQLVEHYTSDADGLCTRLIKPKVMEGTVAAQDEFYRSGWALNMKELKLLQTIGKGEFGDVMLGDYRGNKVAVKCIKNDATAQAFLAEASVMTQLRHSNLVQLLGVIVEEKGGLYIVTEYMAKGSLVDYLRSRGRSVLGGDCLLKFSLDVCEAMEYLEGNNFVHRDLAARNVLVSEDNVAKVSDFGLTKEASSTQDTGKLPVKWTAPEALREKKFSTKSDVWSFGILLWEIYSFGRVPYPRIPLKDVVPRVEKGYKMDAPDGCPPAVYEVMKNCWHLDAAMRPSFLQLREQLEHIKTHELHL
Sequence of TESK1 (human) (Q15569 whole entry, looked up): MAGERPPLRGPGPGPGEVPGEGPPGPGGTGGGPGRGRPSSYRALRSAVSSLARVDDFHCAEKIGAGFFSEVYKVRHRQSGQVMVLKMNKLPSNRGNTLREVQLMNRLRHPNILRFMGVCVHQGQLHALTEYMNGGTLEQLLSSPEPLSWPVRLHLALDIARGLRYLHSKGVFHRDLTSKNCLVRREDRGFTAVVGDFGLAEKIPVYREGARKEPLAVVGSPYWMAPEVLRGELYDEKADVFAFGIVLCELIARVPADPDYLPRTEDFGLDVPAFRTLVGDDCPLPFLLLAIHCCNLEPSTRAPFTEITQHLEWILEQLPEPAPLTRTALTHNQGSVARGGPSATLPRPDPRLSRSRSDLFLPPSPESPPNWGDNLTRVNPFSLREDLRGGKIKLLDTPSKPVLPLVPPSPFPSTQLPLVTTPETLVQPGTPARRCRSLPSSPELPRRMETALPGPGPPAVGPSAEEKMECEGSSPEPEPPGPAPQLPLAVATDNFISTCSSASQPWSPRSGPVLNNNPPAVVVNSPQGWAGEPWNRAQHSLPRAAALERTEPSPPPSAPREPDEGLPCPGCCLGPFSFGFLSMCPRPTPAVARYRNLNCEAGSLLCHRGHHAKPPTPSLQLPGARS

Take `CN1CC[C@H](c2c(O)cc(O)c3c(=O)cc(-c4ccccc4Cl)oc23)[C@H](O)C1`: the concentration for half-maximal inhibition (IC50) is above 10 µM in experiment [1]; 9.47 µM in experiment [2]; above 10 µM in experiment [3]; above 10 µM in experiment [4]; 9.71 µM in experiment [5]; above 10 µM in [6]. In addition, the 50% inhibitory concentration (IC50) in [7] was above 10 µM; in experiment [8], 1.19 µM; in [9] it was above 10 µM.

As usually defined, the IC50 is the midpoint of a concentration-inhibition curve. Low readings indicate inhibition by little substance, high ones a need for much substance.
